Consider one compound from ChEMBL document CHEMBL4311992, “Discovery of 3-(((9H-purin-6-yl)amino)methyl)-4,6-dimethylpyridin-2(1H)-one derivatives as novel tubulin polymerization inhibitors for treatment of cancer” (Eur J Med Chem, 2019).

Calls of active or inactive are those of the source. No cut-off for these calls is given here.

The target of assay [1] is Serine/threonine-protein kinase D3 (Homo sapiens) (UniProt O94806). As to the kind of experiment: Inhibition of recombinant full-length human PKD3 assessed as residual activity at 10 uM using KKLRRTLSVA as substrate measured after 40 mins in presence of [gamma33P]ATP by scintillation counting method.
Assay [2] concerns the target Serine/threonine-protein kinase Nek2 (Homo sapiens) (UniProt P51955). As to the kind of experiment: Inhibition of recombinant full-length human NEK2 assessed as residual activity at 10 uM using myelin basic protein as substrate measured after 40 mins in presence of [gamma33P]ATP by scintillation counting method.
Assay [3] deals with Insulin receptor-related protein (Homo sapiens) (UniProt P14616). As to the kind of experiment: Inhibition of recombinant human IRR (943 to 1266 residues) assessed as residual activity at 10 uM using myelin basic protein as substrate measured after 40 mins in presence of [gamma33P]ATP by scintillation counting method.
Insulin receptor-related protein (Homo sapiens), sequence (P14616 27-742 limits assumed): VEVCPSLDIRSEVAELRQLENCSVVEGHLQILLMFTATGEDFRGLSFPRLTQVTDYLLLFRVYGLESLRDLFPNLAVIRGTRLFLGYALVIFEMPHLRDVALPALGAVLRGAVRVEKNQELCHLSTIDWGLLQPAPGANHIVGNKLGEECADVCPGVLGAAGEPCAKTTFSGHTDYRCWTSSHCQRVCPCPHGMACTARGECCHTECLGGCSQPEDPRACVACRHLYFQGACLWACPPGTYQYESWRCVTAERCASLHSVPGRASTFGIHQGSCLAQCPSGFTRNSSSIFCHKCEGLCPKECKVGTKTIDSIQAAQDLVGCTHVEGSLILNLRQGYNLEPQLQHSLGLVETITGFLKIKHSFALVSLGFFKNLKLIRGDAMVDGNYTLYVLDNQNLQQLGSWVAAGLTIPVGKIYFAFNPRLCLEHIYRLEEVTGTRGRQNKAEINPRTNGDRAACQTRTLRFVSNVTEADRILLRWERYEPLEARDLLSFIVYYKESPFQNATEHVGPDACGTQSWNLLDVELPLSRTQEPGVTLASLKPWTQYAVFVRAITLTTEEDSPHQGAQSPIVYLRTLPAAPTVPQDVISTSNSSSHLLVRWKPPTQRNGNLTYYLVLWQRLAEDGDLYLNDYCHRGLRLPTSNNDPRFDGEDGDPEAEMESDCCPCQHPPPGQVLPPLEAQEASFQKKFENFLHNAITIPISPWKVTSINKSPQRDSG
Insulin receptor-related protein (Homo sapiens), sequence (P14616 747-1297 limits assumed): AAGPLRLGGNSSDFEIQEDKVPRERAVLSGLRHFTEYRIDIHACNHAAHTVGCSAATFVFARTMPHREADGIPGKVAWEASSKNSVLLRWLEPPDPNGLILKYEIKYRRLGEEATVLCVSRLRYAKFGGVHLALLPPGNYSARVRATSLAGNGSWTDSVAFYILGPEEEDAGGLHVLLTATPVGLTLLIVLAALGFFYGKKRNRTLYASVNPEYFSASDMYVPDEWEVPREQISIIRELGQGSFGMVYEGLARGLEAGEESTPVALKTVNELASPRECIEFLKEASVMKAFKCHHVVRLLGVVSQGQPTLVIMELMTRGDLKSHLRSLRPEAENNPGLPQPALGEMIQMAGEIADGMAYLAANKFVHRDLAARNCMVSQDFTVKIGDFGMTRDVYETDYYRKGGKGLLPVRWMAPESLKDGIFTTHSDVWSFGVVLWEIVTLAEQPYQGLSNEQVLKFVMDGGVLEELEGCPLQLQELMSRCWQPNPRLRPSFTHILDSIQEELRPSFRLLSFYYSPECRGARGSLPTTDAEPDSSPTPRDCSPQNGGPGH
For assay [4], the system named is CDK18/Cyclin Y (Homo sapiens), Q07002+Q8ND76 [T166M]. The assay is described as follows: Inhibition of recombinant full length human cyclinY/CDK18 T166M mutant assessed as residual activity at 10 uM using YRRAAVPPSPSLS as substrate measured after 40 mins in presence of [gamma33P]ATP by scintillation counting method. Type of assay: protein-complex assay.
Assay [5] has as its target NT-3 growth factor receptor (Homo sapiens) (UniProt Q16288). The assay is described as follows: Inhibition of human TrkC (510 to end residues) using GEEPLYWSFPAKKK as substrate measured after 40 mins in presence of [gamma33P]ATP by scintillation counting method. Also noted: scale not given: the % may be the effect or the level left.
For assay [6], the system named is Fibroblast growth factor receptor 1 (Homo sapiens), P11362 [V561M]. The assay is described as follows: Inhibition of recombinant human FGFR1 V561M mutant (456 to 765 residues) assessed as residual activity at 10 uM using GGEEEEYFELVKKKK as substrate measured after 40 mins in presence of [gamma33P]ATP by scintillation counting method.
The target in assay [7] is Activated CDC42 kinase 1 (Homo sapiens) (UniProt Q07912). As to the kind of experiment: Inhibition of recombinant human ACK1 (1 to 389 residues) assessed as residual activity at 10 uM using EFPIYDFLPAKKK as substrate measured after 40 mins in presence of [gamma33P]ATP by scintillation counting method.
Assay [8] deals with Tyrosine-protein kinase ABL1 (Homo sapiens), P00519 [T315I]. The assay is described as follows: Inhibition of recombinant human ABL T315I mutant (27 to end residues) assessed as residual activity at 10 uM using EAIYAAPFAKKK as substrate measured after 40 mins in presence of [gamma33P]ATP by scintillation counting method.
For assay [9], the target named is Cyclin-dependent kinase 5/CDK5 activator 1 (Homo sapiens) (UniProt Q00535+Q15078). The assay is described as follows: Inhibition of recombinant full-length human CDK5/p35 assessed as residual activity at 10 uM using histone H1 as substrate measured after 40 mins in presence of [gamma33P]ATP by scintillation counting method. Type of assay: protein-complex assay.
Cyclin-dependent kinase 5/CDK5 activator 1 (Homo sapiens), sequence (Q00535 whole entry): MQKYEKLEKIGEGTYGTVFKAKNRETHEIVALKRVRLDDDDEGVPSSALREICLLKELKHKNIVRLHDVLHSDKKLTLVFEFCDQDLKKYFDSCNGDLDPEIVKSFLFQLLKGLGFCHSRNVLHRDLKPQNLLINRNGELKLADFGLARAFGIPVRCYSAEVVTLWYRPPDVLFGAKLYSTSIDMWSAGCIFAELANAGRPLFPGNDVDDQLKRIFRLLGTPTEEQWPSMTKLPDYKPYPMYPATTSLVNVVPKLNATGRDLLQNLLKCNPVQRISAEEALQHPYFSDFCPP
Cyclin-dependent kinase 5/CDK5 activator 1 (Homo sapiens), sequence (Q15078 99-307 partner limits assumed): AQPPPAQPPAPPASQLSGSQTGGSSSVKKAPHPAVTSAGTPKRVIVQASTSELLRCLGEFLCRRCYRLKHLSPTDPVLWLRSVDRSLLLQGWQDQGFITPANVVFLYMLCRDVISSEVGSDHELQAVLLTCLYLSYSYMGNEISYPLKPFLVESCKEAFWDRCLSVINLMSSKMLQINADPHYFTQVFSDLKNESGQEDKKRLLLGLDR

Assay [10] deals with HCT-116. The assay is described as follows: Induction of apoptosis in human HCT116 cells assessed as increase in cleaved caspase3 expression up to 200 nM measured after 48 hrs by Western blot analysis. In kind it is functional, cell-based. A general note: A western blot detects proteins with antibodies after separation by electrophoresis.
The subject of assay [11] is HCT-116. As to the kind of experiment: Antitumor activity against human HCT116 cells xenografted in nude BALB/c mouse assessed as reduction in tumor weight at 40 mg/kg, po administered once daily for 4 weeks measured every 3 days during compound dosing. Type of assay: functional, organism-based. A general note: Xenograft models place foreign cells or tissue in a host animal.

Assay [12] addresses Serine/threonine-protein kinase 17A (Homo sapiens) (UniProt Q9UEE5). The assay is described as follows: Inhibition of recombinant full-length human DRAK1 assessed as residual activity at 10 uM using KKLNRTLSFAEPG as substrate measured after 40 mins in presence of [gamma33P]ATP by scintillation counting method.
The target in assay [13] is Epidermal growth factor receptor (Homo sapiens) (UniProt P00533). The assay is described as follows: Inhibition of recombinant human EGFR (696 to end residues) assessed as residual activity at 10 uM using poly(Glu, Tyr) 4:1 as substrate measured after 40 mins in presence of [gamma33P]ATP by scintillation counting method.
Assay [14] deals with Mitogen-activated protein kinase kinase kinase kinase 2 (Homo sapiens) (UniProt Q12851). As to the kind of experiment: Inhibition of recombinant human GCK assessed as residual activity at 10 uM using myelin basic protein as substrate measured after 40 mins in presence of [gamma33P]ATP by scintillation counting method.
Mitogen-activated protein kinase kinase kinase kinase 2 (Homo sapiens), sequence (Q12851 whole entry): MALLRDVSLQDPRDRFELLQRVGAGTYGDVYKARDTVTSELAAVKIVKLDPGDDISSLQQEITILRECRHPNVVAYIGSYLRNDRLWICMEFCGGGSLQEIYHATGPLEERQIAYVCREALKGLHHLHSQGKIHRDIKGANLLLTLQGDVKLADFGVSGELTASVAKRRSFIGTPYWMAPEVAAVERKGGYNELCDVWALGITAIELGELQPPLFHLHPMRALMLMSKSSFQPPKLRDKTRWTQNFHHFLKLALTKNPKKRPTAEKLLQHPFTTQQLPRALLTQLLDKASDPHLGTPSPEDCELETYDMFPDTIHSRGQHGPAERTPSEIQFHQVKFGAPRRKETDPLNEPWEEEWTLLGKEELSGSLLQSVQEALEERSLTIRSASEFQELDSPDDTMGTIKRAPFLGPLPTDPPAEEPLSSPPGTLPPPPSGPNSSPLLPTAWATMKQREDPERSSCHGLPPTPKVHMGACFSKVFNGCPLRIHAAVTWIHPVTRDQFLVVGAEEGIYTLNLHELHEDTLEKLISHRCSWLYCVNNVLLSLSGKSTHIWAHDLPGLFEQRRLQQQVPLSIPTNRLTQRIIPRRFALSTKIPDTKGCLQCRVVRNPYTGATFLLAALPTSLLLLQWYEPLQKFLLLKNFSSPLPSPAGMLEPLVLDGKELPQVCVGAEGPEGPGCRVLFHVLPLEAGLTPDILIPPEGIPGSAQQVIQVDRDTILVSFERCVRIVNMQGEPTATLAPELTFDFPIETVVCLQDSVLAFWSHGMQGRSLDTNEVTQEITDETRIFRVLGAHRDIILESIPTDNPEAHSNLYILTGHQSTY
Assay [15] concerns the target Vascular endothelial growth factor receptor 2 (Homo sapiens) (UniProt P35968). The assay is described as follows: Inhibition of recombinant human KDR (790 to end residues) assessed as residual activity at 10 uM using myelin basic protein substrate measured after 40 mins in presence of [gamma33P]ATP by scintillation counting method.
Assay [16] deals with Mitogen-activated protein kinase kinase kinase 9 (Homo sapiens) (UniProt P80192). As to the kind of experiment: Inhibition of recombinant human MLK1 (134 to 414 residues) assessed as residual activity at 10 uM using casein as substrate measured after 40 mins in presence of [gamma33P]ATP by scintillation counting method.
For assay [17], the target named is MAP kinase-interacting serine/threonine-protein kinase 2 (Homo sapiens) (UniProt Q9HBH9). The assay is described as follows: Inhibition of recombinant full-length human Mnk2 assessed as residual activity at 10 uM using myelin basic protein as substrate measured after 40 mins in presence of [gamma33P]ATP by scintillation counting method.
Assay [18] has as its target Serine/threonine-protein kinase PRP4 homolog (Homo sapiens) (UniProt Q13523). As to the kind of experiment: Inhibition of human PRP4 (663 to end residues) using casein as substrate measured after 40 mins in presence of [gamma33P]ATP by scintillation counting method. Set-up: scale not given: the % may be the effect or the level left.
In assay [19] the target is Protein-tyrosine kinase 2-beta (Homo sapiens) (UniProt Q14289). As to the kind of experiment: Inhibition of recombinant full-length human Pyk2 assessed as residual activity at 10 uM using poly(Glu, Tyr) 4:1 as substrate measured after 40 mins in presence of [gamma33P]ATP by scintillation counting method.
The target in assay [20] is Tyrosine-protein kinase Srms (Homo sapiens) (UniProt Q9H3Y6). As to the kind of experiment: Inhibition of human SRMS assessed as residual activity at 10 uM by radiometric method.
Tyrosine-protein kinase Srms (Homo sapiens), sequence (Q9H3Y6 whole entry, the tested form may be a part): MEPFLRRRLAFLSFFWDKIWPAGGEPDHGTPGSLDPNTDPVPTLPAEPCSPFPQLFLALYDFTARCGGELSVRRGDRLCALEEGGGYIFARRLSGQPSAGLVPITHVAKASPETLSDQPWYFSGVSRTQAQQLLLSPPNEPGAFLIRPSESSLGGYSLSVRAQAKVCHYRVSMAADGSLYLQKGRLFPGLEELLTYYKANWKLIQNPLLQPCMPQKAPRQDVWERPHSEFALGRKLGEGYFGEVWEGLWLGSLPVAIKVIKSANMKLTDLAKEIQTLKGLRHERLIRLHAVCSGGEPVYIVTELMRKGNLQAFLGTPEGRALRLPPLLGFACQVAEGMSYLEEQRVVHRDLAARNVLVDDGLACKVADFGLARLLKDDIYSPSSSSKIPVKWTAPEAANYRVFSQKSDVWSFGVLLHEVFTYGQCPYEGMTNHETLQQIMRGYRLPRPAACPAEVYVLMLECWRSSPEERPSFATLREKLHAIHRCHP
The target in assay [21] is Serine/threonine-protein kinase 25 (Homo sapiens) (UniProt O00506). The assay is described as follows: Inhibition of human STK25 (1 to 308 residues) using RLGRDKYKTLRQIRQ as substrate measured after 40 mins in presence of [gamma33P]ATP by scintillation counting method. Also noted: scale not given: the % may be the effect or the level left.
Serine/threonine-protein kinase 25 (Homo sapiens), sequence (O00506 whole entry, looked up, the tested form may be a part): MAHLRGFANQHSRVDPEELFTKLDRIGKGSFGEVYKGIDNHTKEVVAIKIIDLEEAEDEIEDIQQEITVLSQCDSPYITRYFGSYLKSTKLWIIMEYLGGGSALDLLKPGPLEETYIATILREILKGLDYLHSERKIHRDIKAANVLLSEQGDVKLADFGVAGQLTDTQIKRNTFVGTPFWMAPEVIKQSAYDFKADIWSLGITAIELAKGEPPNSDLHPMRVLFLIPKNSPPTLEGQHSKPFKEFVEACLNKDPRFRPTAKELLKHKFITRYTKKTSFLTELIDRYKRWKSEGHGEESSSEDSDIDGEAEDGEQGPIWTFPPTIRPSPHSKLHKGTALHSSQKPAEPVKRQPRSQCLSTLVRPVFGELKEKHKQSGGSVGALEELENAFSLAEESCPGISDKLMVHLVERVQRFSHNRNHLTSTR
Assay [22] concerns the target Phosphatidylinositol 3-kinase C2 domain-containing subunit gamma (Homo sapiens) (UniProt O75747). The assay is described as follows: Inhibition of recombinant human PI3KC2gamma (468 to 1203 residues) assessed as residual activity at 10 uM using phosphatidylinositol as substrate measured after 40 mins by HTRF assay. For orientation: Time-resolved FRET reads energy transfer from a long-lived donor to a nearby acceptor.

In assay [23] the test system is SW-620. The assay is described as follows: Induction of apoptosis in human SW620 cells assessed as late apoptotic cells at 50 nM measured after 48 hrs by Annexin V-FITC/propidium iodide staining-based flow cytometry (reference value: 1.8%). Type of assay: functional.
The subject of assay [24] is SW-620. The assay is described as follows: Induction of apoptosis in human SW620 cells assessed as early apoptotic cells at 50 nM measured after 48 hrs by Annexin V-FITC/propidium iodide staining-based flow cytometry (reference value: 0.773%). In kind it is functional.

Phosphatidylinositol 3-kinase C2 domain-containing subunit gamma (Homo sapiens), sequence (O75747 whole entry, the tested form may be a part): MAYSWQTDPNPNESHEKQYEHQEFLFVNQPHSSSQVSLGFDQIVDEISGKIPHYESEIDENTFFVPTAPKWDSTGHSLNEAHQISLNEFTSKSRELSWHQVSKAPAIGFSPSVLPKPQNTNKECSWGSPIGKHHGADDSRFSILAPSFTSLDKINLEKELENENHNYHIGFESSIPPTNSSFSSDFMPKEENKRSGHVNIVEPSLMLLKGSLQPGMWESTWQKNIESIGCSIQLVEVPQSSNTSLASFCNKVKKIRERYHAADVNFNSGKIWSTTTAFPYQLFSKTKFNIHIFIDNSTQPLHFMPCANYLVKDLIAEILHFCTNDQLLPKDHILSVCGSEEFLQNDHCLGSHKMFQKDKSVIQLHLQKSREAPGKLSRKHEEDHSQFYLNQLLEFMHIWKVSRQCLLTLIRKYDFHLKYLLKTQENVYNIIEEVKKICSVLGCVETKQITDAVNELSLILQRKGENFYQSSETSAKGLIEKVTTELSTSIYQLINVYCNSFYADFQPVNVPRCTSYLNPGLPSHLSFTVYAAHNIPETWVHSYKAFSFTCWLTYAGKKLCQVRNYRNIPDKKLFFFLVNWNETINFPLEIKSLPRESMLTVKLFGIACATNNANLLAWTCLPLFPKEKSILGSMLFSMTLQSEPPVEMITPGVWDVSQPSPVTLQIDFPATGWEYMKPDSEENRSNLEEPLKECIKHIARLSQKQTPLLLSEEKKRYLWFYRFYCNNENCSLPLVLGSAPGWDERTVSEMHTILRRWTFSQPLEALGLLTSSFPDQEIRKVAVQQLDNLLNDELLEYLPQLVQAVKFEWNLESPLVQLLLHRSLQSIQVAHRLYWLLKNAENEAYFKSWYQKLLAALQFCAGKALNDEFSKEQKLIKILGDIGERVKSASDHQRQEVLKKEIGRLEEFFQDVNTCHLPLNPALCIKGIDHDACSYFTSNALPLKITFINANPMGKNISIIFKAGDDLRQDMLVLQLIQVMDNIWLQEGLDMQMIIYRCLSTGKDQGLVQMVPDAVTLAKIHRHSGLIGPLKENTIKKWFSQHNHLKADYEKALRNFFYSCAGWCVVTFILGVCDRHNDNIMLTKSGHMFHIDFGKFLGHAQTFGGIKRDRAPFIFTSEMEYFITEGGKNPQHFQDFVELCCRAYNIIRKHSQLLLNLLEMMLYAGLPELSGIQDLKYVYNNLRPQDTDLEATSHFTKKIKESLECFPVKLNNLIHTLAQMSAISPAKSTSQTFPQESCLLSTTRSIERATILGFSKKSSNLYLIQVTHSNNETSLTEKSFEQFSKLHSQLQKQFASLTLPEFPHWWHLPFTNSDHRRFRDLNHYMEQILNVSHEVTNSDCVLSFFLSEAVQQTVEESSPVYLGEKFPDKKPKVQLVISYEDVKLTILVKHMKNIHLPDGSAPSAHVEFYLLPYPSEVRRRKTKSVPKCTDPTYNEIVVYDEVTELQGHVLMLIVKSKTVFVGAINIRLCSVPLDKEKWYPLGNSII

Regarding `Cc1cc(C)c(CNc2nc(Cl)nc3c2ncn3C2CCCC2)c(=O)[nH]1`, the Activity was 106% in assay [1]; 101% in assay [2]; 102% in [3]; 101% in [4]; 110% in assay [5]; 95.5% in [6]. Moreover, the Activity worked out at 118% in assay [7]; 108% in assay [8]; 108% in [9]; 91.5% in [12]; 114% in assay [13]; 100% in [14]. Further, the Activity worked out at 107% in [15]; 104% in assay [16]; 88% in assay [17]; 93% in assay [18]; 97% in assay [19]; 108% in [20]. The Activity in assay [21] worked out at 106%; in assay [22], 100%; in the assay with SW-620 [23], 9.24%; with SW-620 [24], 1.01%. Further, the result in the assay on HCT-116 [10] and in the assay on HCT-116 [11] was Active.
